Results published in patent US10053455B2, “Diazaspiroalkaneone-substituted oxazole derivatives as spleen tyrosine kinase inhibitors” (AB SCIENCE, priority 2014, dated 2018).

Assays:
[1] = target: Jak3 (Homo sapiens (Human), UniProt P52333); experiment: HTRF kinase assay, Jak3; type: biochemical; conditions: enzymatic determination
Description: (§1) Most of the kinases tested in this study were cloned, expressed and purified in the facilities of the inventors. They were expressed either as N-terminus hexahistidine-, hexahistidine-asparagine- or GST-tagged enzymes in a baculovirus or in a Colibacille expression system. Remaining enzymes (JAKs) were purchased from Millipore or Proqinase. For each enzyme, steady state kinetic parameters were determined and validated with known inhibitors.
(§2) The analysis of the effect of compounds on kinase activity was assessed with the HTRF® KinEASE assay (Cisbio International), an immuno-assay based on the quantification of the level of phosphorylation of a biotinylated peptide substrate using anti-phospho-specific antibody labeled with Europium (Eu^3+) cryptate. This assay comprises two steps: —an enzymatic step, during which the peptide substrate, the kinase, ATP, Mg^2+ and/or Mn^2+ are incubated with varying concentration of drug (from 0 to 10 μM); —a detection step, at the end of the reaction (stopped by addition of EDTA which chelates Mg^2+), the antibody anti-phospho peptide-Eu^3+ (emission 620 nm) and streptavidin XL-665 (emission 665 nm) are added to the reaction mix. […] Results are expressed in delta fluorescence (DF) unit defined as follow DF %=[(ratio−ratio blank)/(ratio blank)]*100, where ratio=(665 nm/620 nm)*10^4. […]

[2] = target: KIT D816V (Homo sapiens (Human), UniProt P10721, D816V); experiment: Cell-based proliferation assay on BaF3 model, KIT D816V
Description: (§3) Cell-based proliferation and viability assay CellTiter-Bleue cell-based survival/proliferation assay (Promega G8080) was performed on BaF3 models.
(§4) A total of 1.10^4 cells/well/50 μl were seeded in a 96-wells plate. Treatment was initiated by addition of a 2× drug solution of ½ serial dilutions ranging from 0 to 10 μM. Cells were grown for 48-72 h at 37° C. and then incubated with 10 μl/well of Promega CellTiter-Bleue reagent for 4 h at 37° C. The amount of formazan dye formed was quantified by its absorbance at 450 nm using a scanning multiwell spectrophotometer (POLARstar Omega, BMG labtech, France). A blank well without cells was used as a background control for the spectrophotometer and all assays were performed in duplicates and the experiments were repeated at least twice.

[3] = target: Flt3 (Homo sapiens (Human), UniProt P36888); experiment: Cell-based proliferation assay on BaF3 model, Flt3
Description: as §3, §4

[4] = target: c-Ret WT (Homo sapiens (Human), UniProt P07949); experiment: HTRF kinase assay, c-Ret WT; type: biochemical; conditions: enzymatic determination
Description: as §1, §2

[5] = tested on: Murine bone marrow mast cells (BMMCs); experiment: IgE-mediated mast cell degranulation assay (β-hexosaminidase release); type: cell-based, C57BL/6J mice; conditions: Mus musculus, BMMC
Description: In vitro mast cell degranulation assay monitored by released of β-hexosaminidase. Murine bone marrow mast cells (BMMCs) are obtained by flushing bone marrow cells from the femurs of C57BL/6J mice, then cultured for 3-4 weeks in RPMI containing mouse recombinant IL-3 (30 ng/ml). RBL-2H3 is a rat basophile cell line maintained in monolayer culture in EMEM supplemented with 20% FCS, 1 mM Glutamine and 1× antibiotics. Cells were sensitized overnight with 0.2 μg/ml anti-DNP-IgE (Sigma-Aldrich D8406). […] After incubation 90 min at 37° C., the reaction was quenched by addition of 100 μl of sodium carbonate buffer (0.1M Na2CO3/NaHCO3 pH 10.0). β-hexosaminidase activity was quantified by reading plate absorbance at 405 nm with reference at 620 nm using a PolarSTAR reader plate (BMG labech).
The activity of anti-SYK compounds was tested in an IgE-mediated mast cell degranulation assay. SYK has been identified to be critical for the initiation of mast cell mediator release following the aggregation of FcεRI.

[6] = tested on: IL6; experiment: FcεRI and Kit-induced IL6 cytokine release in BMMCs; type: cell-based, C57BL/6J mice
Description: Murine bone marrow mast cells (BMMCs) are obtained by flushing bone marrow cells from the femurs of C57BL/6J mice, and then cultured for 3-4 weeks in RPMI containing mouse recombinant IL-3 (30 ng/ml). Cells were sensitized overnight in IL3-depleted culture medium with 0.1-0.2 μg/ml anti-DNP-IgE (Sigma-Aldrich D8406). Cells were preincubated with inhibitors for 30 min, and then stimulated with 10 ng/ml antigen (Ag) and/or Stem Cell Factor (SCF) (30 ng/ml). The cells were incubated for 6 h. The supernatants were harvested, and the cytokine content measured using CISBIO IL6 and TNFα HTRF assay (cat#63ADKEBU043 and 6FMTNPEB respectively).

[7] = WST-1 cell survival/proliferation assay on human cardiomyocytes; type: cell-based; conditions: Human Cardiac Myocyte
Description: WST-1 cell survival/proliferation assay (Roche Diagnostic ref No 1644807) was performed on both primary human adult cardiomyocytes and rat neonatal cardiac myocytes.
Human cardiomyocytes were isolated from normal human ventricle tissue of the adult heart and were able to proliferate for a number of passage. Neonatal ventricular Clonetics® Rat Cardiac Myocytes (P1-3) retained their contractile property and were electrophysiologically active in culture. 1.10^4 primary rat cells or 2-2.5 10^4 adult human cells were plated per well of a 96 wells plates. The cells were allowed to adhere to the plates for 5 days before drug treatment. Treatment was initiated by addition of a 2× drug solution of ½ serial dilutions ranging from 0 to 10 μM. Cells were grown for 48 h at 37° C. and then incubated with 10 μl/well of WST-1 reagent for 4 h at 37° C. The amount of formazan dye formed was quantified by its absorbance at 450 nm using a scanning multiwell spectrophotometer (MultiSkan MS, Thermo-LabSystems, France). A blank well without cells was used as a background control for the spectrophotometer and all assays were performed in triplicate.

Chain of Jak3 (P52333 whole entry): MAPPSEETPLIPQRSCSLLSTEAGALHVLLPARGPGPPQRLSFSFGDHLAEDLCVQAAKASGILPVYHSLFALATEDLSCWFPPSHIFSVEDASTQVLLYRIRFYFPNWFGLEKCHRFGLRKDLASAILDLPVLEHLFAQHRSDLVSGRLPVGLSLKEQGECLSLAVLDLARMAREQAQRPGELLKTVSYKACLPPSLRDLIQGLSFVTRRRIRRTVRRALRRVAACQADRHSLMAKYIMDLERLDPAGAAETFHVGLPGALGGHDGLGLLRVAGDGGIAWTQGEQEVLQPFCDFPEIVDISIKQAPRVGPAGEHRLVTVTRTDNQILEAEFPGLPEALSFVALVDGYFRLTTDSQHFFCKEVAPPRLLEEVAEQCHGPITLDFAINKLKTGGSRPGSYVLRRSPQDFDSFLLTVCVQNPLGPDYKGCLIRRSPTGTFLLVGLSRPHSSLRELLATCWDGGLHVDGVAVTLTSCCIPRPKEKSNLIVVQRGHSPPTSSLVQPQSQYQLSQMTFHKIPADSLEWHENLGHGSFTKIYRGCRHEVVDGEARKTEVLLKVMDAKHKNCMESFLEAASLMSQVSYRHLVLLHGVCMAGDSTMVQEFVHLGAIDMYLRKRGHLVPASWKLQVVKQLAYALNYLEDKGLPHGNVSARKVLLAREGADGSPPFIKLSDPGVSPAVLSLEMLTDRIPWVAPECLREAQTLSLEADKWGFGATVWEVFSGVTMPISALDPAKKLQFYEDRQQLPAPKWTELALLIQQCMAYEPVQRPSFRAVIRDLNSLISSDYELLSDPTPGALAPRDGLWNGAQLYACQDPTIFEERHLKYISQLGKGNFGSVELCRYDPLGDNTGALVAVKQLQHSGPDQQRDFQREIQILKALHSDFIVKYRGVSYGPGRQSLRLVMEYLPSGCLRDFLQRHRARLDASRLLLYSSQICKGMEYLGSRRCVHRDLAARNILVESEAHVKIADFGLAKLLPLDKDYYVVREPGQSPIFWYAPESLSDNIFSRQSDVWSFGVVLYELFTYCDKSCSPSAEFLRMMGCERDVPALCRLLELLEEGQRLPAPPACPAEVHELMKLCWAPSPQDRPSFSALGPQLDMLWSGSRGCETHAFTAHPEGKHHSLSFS
Chain of KIT D816V (P10721 26-976 D816V): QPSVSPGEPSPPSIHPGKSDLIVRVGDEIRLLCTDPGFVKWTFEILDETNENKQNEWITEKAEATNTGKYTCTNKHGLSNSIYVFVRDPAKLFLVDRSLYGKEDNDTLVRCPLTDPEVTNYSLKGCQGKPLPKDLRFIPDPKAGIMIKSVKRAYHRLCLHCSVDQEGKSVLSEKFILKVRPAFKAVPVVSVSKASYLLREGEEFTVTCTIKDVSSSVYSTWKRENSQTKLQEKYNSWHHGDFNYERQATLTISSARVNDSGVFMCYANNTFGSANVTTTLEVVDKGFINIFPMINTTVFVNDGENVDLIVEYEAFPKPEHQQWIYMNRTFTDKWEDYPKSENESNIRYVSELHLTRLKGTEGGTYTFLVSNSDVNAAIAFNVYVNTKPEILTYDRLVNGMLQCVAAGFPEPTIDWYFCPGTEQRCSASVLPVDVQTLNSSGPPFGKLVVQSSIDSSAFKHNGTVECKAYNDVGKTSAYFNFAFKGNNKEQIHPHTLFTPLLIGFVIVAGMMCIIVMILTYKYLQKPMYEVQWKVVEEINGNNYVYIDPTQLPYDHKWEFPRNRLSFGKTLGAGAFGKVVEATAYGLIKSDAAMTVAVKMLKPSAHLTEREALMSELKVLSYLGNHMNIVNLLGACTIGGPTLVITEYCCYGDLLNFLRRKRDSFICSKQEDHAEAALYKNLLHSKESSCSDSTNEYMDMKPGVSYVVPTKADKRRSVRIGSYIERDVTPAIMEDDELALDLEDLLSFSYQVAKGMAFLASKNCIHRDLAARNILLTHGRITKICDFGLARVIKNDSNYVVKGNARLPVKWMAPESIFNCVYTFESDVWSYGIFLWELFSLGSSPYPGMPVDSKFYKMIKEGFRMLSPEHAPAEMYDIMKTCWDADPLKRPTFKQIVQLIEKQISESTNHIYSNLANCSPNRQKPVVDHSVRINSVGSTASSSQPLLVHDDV
Chain of Flt3 (P36888 27-993, species assumed): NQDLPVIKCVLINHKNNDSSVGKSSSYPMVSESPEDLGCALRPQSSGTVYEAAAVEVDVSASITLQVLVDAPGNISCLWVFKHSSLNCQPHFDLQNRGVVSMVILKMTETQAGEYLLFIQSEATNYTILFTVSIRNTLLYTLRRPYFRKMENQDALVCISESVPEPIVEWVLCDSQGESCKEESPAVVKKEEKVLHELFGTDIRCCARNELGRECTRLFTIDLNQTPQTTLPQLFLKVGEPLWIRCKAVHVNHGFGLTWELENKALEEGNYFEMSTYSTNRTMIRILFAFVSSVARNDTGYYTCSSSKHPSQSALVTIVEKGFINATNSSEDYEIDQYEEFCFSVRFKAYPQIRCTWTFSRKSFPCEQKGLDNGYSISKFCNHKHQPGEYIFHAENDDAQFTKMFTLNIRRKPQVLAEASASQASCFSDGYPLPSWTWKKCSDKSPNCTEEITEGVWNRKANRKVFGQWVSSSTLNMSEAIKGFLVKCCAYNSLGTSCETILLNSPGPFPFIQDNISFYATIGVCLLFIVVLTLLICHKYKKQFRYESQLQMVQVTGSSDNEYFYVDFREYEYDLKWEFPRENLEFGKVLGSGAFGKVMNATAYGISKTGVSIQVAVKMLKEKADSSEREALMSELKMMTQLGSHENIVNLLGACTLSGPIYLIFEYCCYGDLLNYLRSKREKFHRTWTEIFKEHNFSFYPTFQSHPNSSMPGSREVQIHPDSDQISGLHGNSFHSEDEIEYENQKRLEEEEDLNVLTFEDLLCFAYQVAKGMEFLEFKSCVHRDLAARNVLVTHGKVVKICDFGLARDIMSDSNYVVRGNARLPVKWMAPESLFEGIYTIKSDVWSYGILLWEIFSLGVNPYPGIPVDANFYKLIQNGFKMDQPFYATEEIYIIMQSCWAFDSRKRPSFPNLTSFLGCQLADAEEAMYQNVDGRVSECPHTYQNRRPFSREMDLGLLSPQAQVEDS
Chain of c-Ret WT (P07949 29-1114): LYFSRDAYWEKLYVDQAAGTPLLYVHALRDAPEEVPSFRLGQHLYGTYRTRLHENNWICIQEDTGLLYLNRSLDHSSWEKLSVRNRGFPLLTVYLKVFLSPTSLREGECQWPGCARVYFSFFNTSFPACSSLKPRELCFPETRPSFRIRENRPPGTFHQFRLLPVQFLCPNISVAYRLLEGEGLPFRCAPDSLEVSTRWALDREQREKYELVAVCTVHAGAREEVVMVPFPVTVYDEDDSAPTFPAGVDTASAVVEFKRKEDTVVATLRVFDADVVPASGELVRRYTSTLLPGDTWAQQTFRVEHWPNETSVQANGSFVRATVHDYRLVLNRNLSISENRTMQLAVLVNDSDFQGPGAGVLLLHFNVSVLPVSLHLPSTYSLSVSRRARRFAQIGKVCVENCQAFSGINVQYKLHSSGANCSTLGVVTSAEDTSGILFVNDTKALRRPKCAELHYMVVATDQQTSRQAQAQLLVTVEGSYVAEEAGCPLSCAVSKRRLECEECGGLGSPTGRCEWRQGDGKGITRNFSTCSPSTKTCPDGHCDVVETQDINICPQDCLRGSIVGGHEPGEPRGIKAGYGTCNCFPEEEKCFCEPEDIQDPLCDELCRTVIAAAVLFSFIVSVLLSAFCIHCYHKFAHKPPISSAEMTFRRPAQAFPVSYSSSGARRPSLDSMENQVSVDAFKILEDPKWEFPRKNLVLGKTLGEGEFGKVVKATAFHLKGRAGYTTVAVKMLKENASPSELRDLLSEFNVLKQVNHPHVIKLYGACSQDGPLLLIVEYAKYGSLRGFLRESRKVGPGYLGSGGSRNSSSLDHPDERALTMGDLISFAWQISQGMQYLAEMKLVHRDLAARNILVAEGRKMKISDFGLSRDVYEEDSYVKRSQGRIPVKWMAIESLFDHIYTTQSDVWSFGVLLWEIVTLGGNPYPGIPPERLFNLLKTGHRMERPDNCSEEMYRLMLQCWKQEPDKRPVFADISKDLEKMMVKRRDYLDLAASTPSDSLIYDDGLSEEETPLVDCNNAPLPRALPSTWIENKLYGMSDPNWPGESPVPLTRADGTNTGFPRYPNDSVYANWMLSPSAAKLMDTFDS

## Cc1ccnc(Nc2cccc(-c3cnc(N4CCNC(=O)C45CC5)o3)c2)n1 [Compound 001, 4-{5-[3-(4-Methyl-pyrimidin-2-ylamino)-phenyl]-oxazol-2-yl}-4,7-diaza-spiro[2.5]octan-8-one]
[1]
  IC50: 20 µM
[2]
  IC50: 10 µM
[3]
  IC50: 6 µM
[4]
  IC50: 10 µM
[5]; 0.01 μM, read-out: β-hexosaminidase activity (% control untreated cells)
  activity at 0.01 µM: 88 ± 14%
[5]; 0.1 μM, read-out: β-hexosaminidase activity (% control untreated cells)
  activity at 0.1 µM: 32 ± 9%
[5]; 1 μM, read-out: β-hexosaminidase activity (% control untreated cells)
  activity at 1 µM: 3 ± 5%
[5]; read-out: inhibiting mast cell degranulation IC50
  IC50: 0.05 µM
[6]; Ag + SCF + 0.01 μM of compound
  IL6 Cytokine Release (% relative to control Ag + SCF): 89%
  IL6 Cytokine Release (Relative Fluorescence Units): 756.5 Relative Fluorescence Units
[6]; Ag + SCF + 0.1 μM of compound
  IL6 Cytokine Release (% relative to control Ag + SCF): 29%
  IL6 Cytokine Release (Relative Fluorescence Units): 249 Relative Fluorescence Units
[6]; Ag + SCF + 1 μM of compound
  IL6 Cytokine Release (% relative to control Ag + SCF): 6%
  IL6 Cytokine Release (Relative Fluorescence Units): 54 Relative Fluorescence Units
[6]; Mus musculus, BMMC, Ag + SCF stimulated BMMCs, read-out: IL-6 release IC50
  IC50: ~0.05 µM
[7]; 48 h, read-out: Drug-induced cytotoxicity IC50, Hu-CM
  IC50 at 48 h: 10 µM
[7]; primary human adult cardiomyocytes, 1 μM, read-out: % cell viable at 1 μM, Hu-CM
  viability at 48 h, 1 µM: 14%
